Patent US20200297820A1, “STIMULATION OF HUMAN MEIBOMIAN GLAND FUNCTION” (The Schepens Eye Research Institute, Inc., priority 2013, published 2020)

Key:
[1] = topical 0.5, 1.0 and 1.5% AZM eye drops, for 24 hours; cited from earlier work
[2] = tested on: human meibomian gland epithelial cells; assay: LysoTracker Red staining of lysosomes; type: cell-based; conditions: 10 μg/ml, 5 days
Experimental: This section outlines the materials and methods that produced the experimental data. Immortalized human meibomian gland epithelial cells were cultured in the presence or absence of 10% fetal bovine serum. […]
(§1) Cell numbers were enumerated with a hemocytometer. Cellular lipid and lysosome accumulation were examined by staining cells with: Filipin III (a fluorometric probe for identifying unesterified cholesterol), LipidTOX green neutral lipid stain, and LysoTracker® Red DND-99 (a fluorescent technique designed for labeling acidic organelles such as lysosomes). Lysosomal lamellar bodies were identified by transmission electron microscopy. In brief, after culture and treatment on 24 mm polycarbonate membrane transwell inserts (0.4 μm pore size), cells were fixed in a solution of 2% formaldehyde+2.5% glutaraldehyde, in 0.08 M sodium cacodylate buffer, pH 7.4, post-fixed with 2% osmium tetroxide in 0.1 M sodium cacodylate buffer, and stained en bloc with 2% aqueousuranyl acetate. Samples were then dehydrated in graded ethyl alcohol solutions and embedded by using the tEPON-812 epoxy resin kit. Cross sections (1 μM) were stained with 1% toluidine blue in 1% sodium tetraborate solution. […] Lipids were then evaluated with high-performance thin-layer chromatography. […] Image data were quantified with ImageJ (http://rsbweb.nib.gov/ij/index.html). […]

[3] = tested on: human meibomian gland epithelial cells; assay: Filipin III staining of free (unesterified) cholesterol; type: cell-based; conditions: 10 μg/ml, 5 days
Experimental: This section outlines the materials and methods that produced the experimental data. Immortalized human meibomian gland epithelial cells were cultured in the presence or absence of 10% fetal bovine serum. After reaching 80-90% confluence (˜5×10^6/well), cells were exposed to the vehicle (0.02% ethanol) or azithromycin (10 μg/ml) for 5 days and then processed for histological and biochemical procedures.
as §1, with “acetate.” for “acetate. Samples were then dehydrated in graded ethyl alcohol solutions and embedded by using the tEPON-812 epoxy resin kit. Cross sections (1 μM) were stained with 1% toluidine blue in 1% sodium tetraborate solution.”

[4] = tested on: immortalized human meibomian gland epithelial cells; assay: Cellular morphology (terminal maturation, holocrine-like secretion); type: cell-based; conditions: azithromycin 10 μg/ml
Experimental: As an example of these experiments, immortalized human meibomian gland epithelial cells were cultured in the presence or absence of 10% fetal bovine serum. Cells were treated with an ethanol vehicle or azithromycin (10 μg/ml; Santa Cruz Biotechnology) for varying time periods. Cellular morphological appearance was recorded, cells were counted with a hemocytometer, and lipid accumulation was assessed by staining the cells with LipidTOX green neutral lipid stain (Invitrogen, Grand Island, N.Y.), according to reported methods. Staining fluorescent intensities were quantified by using ImageJ (http://rsbweb.nih.gov/ij/index.html). Statistical analyses were performed with Student's t-test (two-tailed, unpaired). Immortalized human meibomian gland epithelial cells ([…]; passages 20-22) were cultured in the presence or absence of 10% fetal bovine serum. Cells were treated with the ethanol vehicle or azithromycin (10 μg/mL) for varying periods. Cellular morphological appearance was recorded, cells were counted with a hemocytometer, and lipid accumulation was assessed by staining cells with LipidTOX green neutral lipid stain (Invitrogen Corp). Staining fluorescent intensities were quantified using ImageJ software (http://rsbweb.nih.gov/ij/index.html). Statistical analyses were performed with t test (2-tailed, unpaired).

LNCaP cells = assay: Immunoblot of JAK2/STAT5 pathway in positive control cells; type: cell-based
Experimental: The disclosure turns now to sodium dodecyl sulfate-polyacrylamide gel, electrophoresis, and immunoblots. Cells were directly lysed in Laemmli buffer supplemented with 1% protease inhibitor cocktail (Sigma-Aldrich) and 5% β-mercaptoethanol (Sigma-Aldrich). Lysates were heated at 95° C. for 10 minutes, separated by sodium dodecyl sulfate-polyacrylamide gel electrophoresis on 10% Tris-glycine precast gels, and transferred to polyvinylidene difluoride membranes. Rabbit or mouse antibodies used were specific for phosphorylated Akt (p-Akt), pan-Akt, p-FoxO1, FoxO1, p-JAK2, JAK2, and β-actin; for p-ERK, ERK-2, STAT5, and the precursor form of SREBP-1; and for p-STAT5. Membranes were blocked with 5% bovine serum albumin in Tris-buffered saline containing 0.01% polysorbate 20. All primary antibodies were diluted to 1:1000 in blocking buffer except for p-Akt (1:4000), p-ERK (1:2000), ERK-2 (1:4000), SREBP-1 (1:200), and β-actin (1:10 000). Horseradish peroxidase-conjugated secondary antibodies were goat anti-rabbit IgG and Fc-specific goat anti-mouse IgG diluted to 1:5000. […]
FIGS. 9a, 9b, and 9c illustrate the effects of insulin-like growth factor 1 (IGF-1) and growth hormone (GH) on signaling pathways in human meibomian gland epithelial cells. […] Cell lysates were evaluated on immunoblotting. […]

Row | Molecule | tear concentration [1] | accumulation of lysosomes (LysoTracker) [2] | accumulation of free cholesterol (Filipin) [3] | terminal maturation and holocrine-like secretion [4] | activation of JAK2/STAT5 pathway (LNCaP cells)
1 | CC[C@H]1OC(=O)[C@H](C)[C@@H](O[C@H]2C[C@@](C)(OC)[C@@H](O)[C@H](C)O2)[C@H](C)[C@@H](O[C@@H]2O[C@H](C)C[C@H](N(C)C)[C@H]2O)[C@](C)(O)C[C@@H](C)CN(C)[C@H](C)[C@@H](O)[C@]1(C)O [Azithromycin] | above 7 μg/ml | significantly stimulates the accumulation | significantly stimulates the accumulation | promote terminal maturation | 
2 | GH: human growth hormone |  |  |  |  | activated the JAK2/STAT5 pathway
